The source of these data is patent US20140017701A1, “CHIMERIC PDK1 KINASES” (priority 2011, published 2014).

Assay [1] relates to PDK1. In words: Protein kinase activity assay, PDK1. The format is biochemical, human. The following applies: for Effect on PDK1 activity: PDK1 wt / PDK1 50-359; for Activity (%) PDK1: Table I a, percentage of catalytic activity compared to DMSO, T308tide substrate, 50 μM stated for PS171. The protocol: For the expression and purification of protein kinases fused to GST, pEBG-2T derived plasmids were transfected into 8×14.5 cm dishes containing HEK293 cells using the PEI method ([…] and […]/14.5 cm dish). The cells were lysed after 48 h in a buffer containing 50 mM Tris-HCl pH 7.5, 1 mM EGTA, 1 mM EDTA, 1% (w/v) Triton X-100, 1 mM sodium orthovanadate, […], 5 mM sodium pyrophosphate, 0.27 M sucrose, 0.1% β-mercaptoethanol, and 1 tablet of protease inhibitor cocktail per 50 ml of buffer. Lysates were frozen in liquid nitrogen and kept at −80° C. until required. Purification involved incubation of the cleared lysate with glutathione sepharose, followed by 2 washes with 0.5 M NaCl in lysis buffer, 8 washes with a buffer containing 50 mM Tris-HCl, 0.1 mM EGTA and 0.1% β-mercaptoethanol (buffer A), and a last wash with buffer A supplemented with 0.26 M sucrose. Elution was performed with this last buffer containing 20 mM glutathione and the GST-fusion protein was cleared from resin by filtration through a “SigmaPrep” spin column (Sigma). GST-fusion proteins were aliquoted, snap frozen in liquid nitrogen and kept at −80° C. until use. Purity at this stage was above 85% as estimated by SDS-PAGE and staining with Coomassie Brilliant Blue R250. PRK2 was expressed from pEBG-2T-PRK2 (Balendran, A. et al. J Biol Chem 275, 20806-13. (2000)), SGK1 from pEBG-2T-SGK1-ΔN[Ser422Asp], PKBα from pEBG-2T-PKBα[Ser473Asp] (Biondi et al., D. R. Embo J 20, 4380-90. (2001)), PKCl from pEBG-2T-PKCl and PKCζ from pEBG-2T-PKCζ. PDK1 and S6K1 were expressed in Sf9 insect cells using a baculovirus expression system from pFastBac-PDK1 and pFastBac-56K1-T2[Thr412Glu].
(§1) The protein kinase activity assays were performed essentially as previously described (Engel, M. et al. Embo J 25, 5469-80 (2006)). The assays were done in a 96-well format and 4 μl aliquots spotted on P81 phospho-cellulose papers (Whatman) using epMotion 5070 (Eppendorf), washed in 0.01% phosphoric acid, dried, and then exposed and analyzed using PhosphoImager technology (FLA-9000 Starion, Fujifilm). Atypical PKC (aPKC) activity assays were performed in a total volume of 20 μl containing 50 mM Tris-HCl pH 7.5, 0.05 mg/ml BSA, 0.1% (v/v) 2-mercaptoethanol, 10 mM MgCl2, 100 μM [γ^32P]ATP (5-50 cpm/pmol), 0.003% Brij, 30-50 ng of aPKC, and MBP (10 μM) or PSRtide (100 μM) as the substrate. After 15 min pre-incubation, the kinase reaction was started by addition of 6 μl of an ATP-Mg mix. When required, lipid activator (LA) phosphatidylserine (100 ng) or PKC lipid activator mix (1×) was included in the pre-incubation. Low basal activity and consistent activation of 1-592 PKCζ and 498 PKCζ by LA was obtained when the pre-incubation time was started by addition of the whole mix on the enzyme.
The substrates were T308tide (200 μM) for PDK1, Kemptide (100 μM) for PKA, and Crosstide (100 μM) for SGK, PKB, S6K, and PRK2. The activity assays for PKCα, β, θ, and δ were performed in the presence of PKC lipid activator mix (1×) using 3 μM of histone H1 as substrate.
The activity assays were performed in duplicates or triplicates (in the case of the temperature stability assay) with less than 10% difference between the duplicate pairs. The activity assays shown were repeated at least twice with similar results. Moreover, most of the assays shown were repeated multiple times with enzymes from independent purifications with similar results. Representative experiments are shown. […]

The target of assay [2] is T1, S6K1-T2-[Thr412Glu] (Homo sapiens, UniProt P23443, T412E).
T1 construct: His; made in house; host or cells: Sf9 insect cells (baculovirus)
In words: Protein kinase activity assay, S6K1. The note with it: Table I a; percentage of catalytic activity compared to DMSO; Crosstide substrate. The class given is biochemical. The protocol:
For the expression and purification of protein kinases fused to GST, pEBG-2T derived plasmids were transfected into 8×14.5 cm dishes containing HEK293 cells using the PEI method ([…] and […]/14.5 cm dish). The cells were lysed after 48 h in a buffer containing 50 mM Tris-HCl pH 7.5, 1 mM EGTA, 1 mM EDTA, 1% (w/v) Triton X-100, 1 mM sodium orthovanadate, […], 5 mM sodium pyrophosphate, 0.27 M sucrose, 0.1% β-mercaptoethanol, and 1 tablet of protease inhibitor cocktail per 50 ml of buffer. Lysates were frozen in liquid nitrogen and kept at −80° C. until required. Purification involved incubation of the cleared lysate with glutathione sepharose, followed by 2 washes with 0.5 M NaCl in lysis buffer, 8 washes with a buffer containing 50 mM Tris-HCl, 0.1 mM EGTA and 0.1% β-mercaptoethanol (buffer A), and a last wash with buffer A supplemented with 0.26 M sucrose. […]
The protein kinase activity assays were performed essentially as previously described (Engel, M. et al. Embo J 25, 5469-80 (2006)). The assays were done in a 96-well format and 4 μl aliquots spotted on P81 phospho-cellulose papers (Whatman) using epMotion 5070 (Eppendorf), washed in 0.01% phosphoric acid, dried, and then exposed and analyzed using PhosphoImager technology (FLA-9000 Starion, Fujifilm). […]

For assay [3], the target named is T2, PKCδ (Homo sapiens, UniProt Q05655).
T2 construct: purchased ProQinase
In words: Protein kinase activity assay, PKCδ. The class given is biochemical. The note with it: Table I b; percentage of catalytic activity compared to DMSO; lipid activator mix, histone H1. The protocol: as §1
The substrates were T308tide (200 μM) for PDK1, Kemptide (100 μM) for PKA, and Crosstide (100 μM) for SGK, PKB, S6K, and PRK2. The activity assays for PKCα, β, θ, and δ were performed in the presence of PKC lipid activator mix (1×) using 3 μM of histone H1 as substrate. […]

T1 sequence (P23443 1-421 T412E limits assumed): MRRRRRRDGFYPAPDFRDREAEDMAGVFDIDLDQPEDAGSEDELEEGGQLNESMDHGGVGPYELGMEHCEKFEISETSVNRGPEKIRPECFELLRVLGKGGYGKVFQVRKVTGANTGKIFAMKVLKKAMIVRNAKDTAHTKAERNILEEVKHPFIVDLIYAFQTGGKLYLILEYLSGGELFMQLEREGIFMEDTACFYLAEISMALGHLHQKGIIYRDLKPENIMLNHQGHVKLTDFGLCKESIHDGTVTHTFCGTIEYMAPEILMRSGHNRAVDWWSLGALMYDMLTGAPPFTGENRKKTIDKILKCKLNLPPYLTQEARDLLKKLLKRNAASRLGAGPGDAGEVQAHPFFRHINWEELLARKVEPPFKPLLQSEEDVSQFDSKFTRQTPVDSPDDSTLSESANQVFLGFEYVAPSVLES
T2 sequence (Q05655 whole entry): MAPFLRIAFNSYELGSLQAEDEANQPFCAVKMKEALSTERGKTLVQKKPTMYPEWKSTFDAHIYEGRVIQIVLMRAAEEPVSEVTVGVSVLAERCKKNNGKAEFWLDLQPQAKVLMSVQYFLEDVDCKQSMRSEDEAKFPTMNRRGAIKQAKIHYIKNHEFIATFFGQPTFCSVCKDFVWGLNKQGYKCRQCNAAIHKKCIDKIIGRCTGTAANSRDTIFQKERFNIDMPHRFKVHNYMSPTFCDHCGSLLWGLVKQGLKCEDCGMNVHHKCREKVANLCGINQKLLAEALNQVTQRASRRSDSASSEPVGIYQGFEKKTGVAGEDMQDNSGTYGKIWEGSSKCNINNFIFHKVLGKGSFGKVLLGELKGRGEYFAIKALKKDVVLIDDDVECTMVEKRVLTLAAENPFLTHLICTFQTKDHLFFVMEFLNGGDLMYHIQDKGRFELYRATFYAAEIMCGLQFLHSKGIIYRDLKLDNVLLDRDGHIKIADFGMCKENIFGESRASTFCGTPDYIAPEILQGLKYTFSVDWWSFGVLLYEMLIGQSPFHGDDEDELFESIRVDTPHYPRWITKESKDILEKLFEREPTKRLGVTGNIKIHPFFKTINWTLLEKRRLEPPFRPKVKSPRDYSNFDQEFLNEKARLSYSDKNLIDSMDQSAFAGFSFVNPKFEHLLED

Regarding `Cl.O=C(O)CC(Cc1nc2cc(-c3ccccc3)ccc2[nH]1)c1ccc(Cl)cc1` (centres unmarked) [PS168], in assay [1], the “Effect on PDK1 activity” value was “activates” and the “Activity (%) PDK1” value is 294%. The “Activity (%) S6K1” value in assay [2] is recorded as 41%. Besides, the “Activity (%) Novel PKCs PKCδ” value in assay [3] was 148%.

For the molecule `Cl.O=C(O)CC(Cc1nc2c(Cl)cc(Cl)cc2[nH]1)c1ccc(Cl)cc1` (centres unmarked) [PS171], in assay [1], the “Effect on PDK1 activity” value is given as “allosteric activators” and the “Activity (%) PDK1” value was 246%. For the same molecule, in assay [2], the “Activity (%) S6K1” value came out at 47%. Also, the “Activity (%) Novel PKCs PKCδ” value in assay [3] was 170%.
